From patent US7881777B2, “Method and apparatus for performing intra-operative angiography” (National Research Council of Canada, priority 1999, dated 2011)

Test system: mouse femoral artery
Experiment: Mouse femoral vessel diameter by ICG fluorescence angiography under topically applied acetylcholine
Settings: mouse femoral artery in vivo
Procedure: In this example, a fluorescent dye (ICG) was injected into the vascular bed (via jugular cannulation in the mouse: via an infusion line in the langendorff perfused heart) and excited using radiation from a laser source (806 nm). The fluorescence (radiation) emitted by the dye (830 nm) was captured as a series of angiograms using a CCD camera. The camera relayed the angiograms to analog-to-digital conversion software running on a PC that digitized the angiograms. The digitized images were then analyzed both qualitatively (by viewing the monitor) and quantitatively. One example of quantitative evaluation that was undertaken was the determination of the mouse femoral artery diameter using software comprising a sub-pixel edge detection system running on the PC.
The foregoing fluorescence imaging technique was used on the mouse femoral artery in vivo. A more detailed explanation of each component of the apparatus, preparation of the animal, injection of ICG, and analytical method, are set forth in the following paragraphs.
The mouse was prepared by inducing anesthesia in an induction box using isoflurane (Ohmeda Pharmaceutical Products, Mississauga, ON, Canada) (4% in medical air, 4 L/min) and maintained by use of a facemask providing isoflurane at a rate of 1.5-2.0% in medical air (400 mL/min). During the experiment, the mouse was positioned on a thermostatted water blanket, with body temperature being monitored by a rectal temperature probe. To facilitate imaging of the vessels of interest, the thoracic, abdominal and inguinal areas of the mouse were shaved, the mouse positioned on its back, and the skin over the femoral vasculature was resected to expose the vasculature of interest. The jugular vein was cannulated using a piece of stretched PE10 tubing filled with saline containing 50 U heparin/mL.
After the mouse was prepared, a 10 μl bolus IV injection of ICG was administered, followed by an IV injection of 50 μl of saline solution. To prepare the bolus, 4 μg/ml of clinical grade ICG (CARDIO-GREEN™) was dissolved in sterile aqueous solvent within one hour of injection. All injections were administered via the cannula established in the jugular vein. The saline was used to flush the line and to ensure passage of an intact bolus through the femoral vasculature, producing a sharp wavefront.
Image analysis was performed using XCAP for Windows 95/98/NT version 1.0 (EPIX Inc., Buffalo Grove, Ill.). The image processing algorithm included the following steps.
1. Selection of vessels of interest. The anatomy of the vasculature varies between animals. Consequently, it was necessary to develop criteria for the selection of an area of interest. This process began with the positioning of the camera. The camera was positioned so that the field of view included the femoral artery and its branches. For the purposes of image analysis, the vessels of interest were the femoral artery and the branches that provided the highest resolution and the greatest degree of branching, usually tertiary or quaternary.
2. Calibration. The positioning of the camera with respect to the area being imaged varied with each animal, and it was therefore necessary to calibrate the camera for every image collected. A small diameter (320 μm) capillary tube (TSP320450; Polymicro Technologies, LLC, Phoenix, Ariz.) filled with ICG was used to calibrate the images. The image processing software includes a built-in calibration function that allows the specification of a set of pixel co-ordinates and the assignment of a user-defined value to the distance between these co-ordinates. The software's edge detector was used to determine the co-ordinates of the edges of the dye fluorescing in the capillary tube. The inner diameter of the capillary tube, in microns, was then assigned to the “length” of the distance between these points. Because this is a built-in feature of the software, all subsequent measurements in all frames of the image were stated in microns, rather than pixel units. […]

## CC(=O)OCC[N+](C)(C)C [Acetylcholine, acetylcholine]
Primary vessel, acetylcholine concentration 0.01 μM
  Vessel Diameter (microns): 58.2 ± 1.3 microns
Primary vessel, acetylcholine concentration 1.0 μM
  Vessel Diameter (microns): 58.3 ± 1.5 microns
Primary vessel, acetylcholine concentration 10.0 μM
  Vessel Diameter (microns): 64.6 ± 1.5 microns
Primary vessel, acetylcholine concentration .01 μM
  Vessel Diameter (microns): 61.5 ± 1.7 microns
Secondary vessel, acetylcholine concentration 0.01 μM
  Vessel Diameter (microns): 67.0 ± 1.3 microns
Secondary vessel, acetylcholine concentration 1.0 μM
  Vessel Diameter (microns): 90.0 ± 1.8 microns
Secondary vessel, acetylcholine concentration 10.0 μM
  Vessel Diameter (microns): 75.0 ± 1.4 microns
Secondary vessel, acetylcholine concentration .01 μM
  Vessel Diameter (microns): 75.1 ± 1.2 microns
Tertiary vessel, acetylcholine concentration 0.01 μM
  Vessel Diameter (microns): 42.9 ± 0.6 microns
Tertiary vessel, acetylcholine concentration 1.0 μM
  Vessel Diameter (microns): 47.1 ± 1.2 microns
Tertiary vessel, acetylcholine concentration 10.0 μM
  Vessel Diameter (microns): 42.9 ± 0.8 microns
Tertiary vessel, acetylcholine concentration .01 μM
  Vessel Diameter (microns): 44.9 ± 0.6 microns
